Test results from patent US11576978B2, “Hemoglobin-based therapeutic agents” (priority 2019, dated 2023).

Experiments:
[1] = Preliminary repeat-dose toxicity in normal mice; assay type: in vivo; conditions: weekly, four IV doses, BALB/c mice
Procedure: The toxicity of Hb-SMCC-DM1 with an (Prepared using one-step method in Example 5, MDR of 3.0) is evaluated in repeat-dose study in normal BALB/c mice. Briefly, mice (n=3, females/group) are administered with unconjugated-DM1 and Hb-SMCC-DM1 weekly for a total of four IV doses at PBS, 2.5 mg/kg of unconjugated-DM1, and 42, 84, 126, and 168 mg/kg of Hb-SMCC-DM1, respectively. Body weights are recorded at every 3 days.

cancer cell lines = experiment: MTT cytotoxicity assay on cancer cell lines; assay type: cell-based; conditions: various cancer cells
Procedure: Cancer cells are cultured in medium (Invitrogen) with 10% Fetal bovine serum (FBS), 100 U/mL penicillin and 100 μg/mL streptomycin at 37° C. For normoxic condition, cells are incubated with ambient O2 concentration and 5% CO2, for hypoxic condition, cells are incubated with 0.1-0.5% O2 (Quorum FC-7 automatic CO2/O2/N2 gas mixer) and 5% CO2.
Cell viability is measured using a 3-(4,5-dimethylthiazol-2-yl)-2,5-diphenyltetrazolium bromide (MTT) proliferation assay. Briefly, cancer cell lines (e.g. HCT116, 4T1, and SMMC7721) are seeded in a 96-well flat-bottomed microplate and cultured in 100 μL growth medium at 37° C. and 5% CO2 for 24 h. Cell culture medium in each well is then replaced by 100 μL cell growth medium, containing either no drug, DM1 alone or modified hemoglobin-based cytotoxic agents at series concentrations. Incubation of drugs for 24 h, cell culture medium containing drugs is replaced by 100 μL MTT labeling reagent (1 mg/mL in PBS solution) in each well and incubation for further 4 h at 37° C. The medium is removed gently, and 50 μL DMSO is then added to each well as solubilizing agent to dissolve the formazan crystals completely. The absorbance at the wavelength of 570 nm is measured by iMark Microplate Absorbance Spectrophotometer, and each data point represents the means±SD from triplicate wells.

[2] = Biodistribution of AF750-labeled agents in normal mice; assay type: in vivo, normal BALB/c mice; conditions: 72 h post-injection, 40 mg/kg intravenously
Procedure: Biodistribution of Hb-SMCC-DM1 (Prepared using one-step method in Example 5, MDR of 3.0) in normal mice is performed by using normal mice model. Briefly, normal BALB/c mice are injected intravenously with 40 mg/kg of Hb-AF750 and Hb-SMCC-DM1-AF750, respectively, and imaged serially from 2 hour to 72 hour post-injection. The mice are sacrificed at 72 hour of drug administration to collect various kinds of organ for imaging.

In the case of `COc1cc2cc(c1Cl)N(C)C(=O)C[C@H](OC(=O)[C@H](C)N(C)C(=O)CCS)[C@]1(C)O[C@H]1[C@H](C)[C@@H]1C[C@@](O)(NC(=O)O1)[C@H](OC)/C=C/C=C(\C)C2` [unconjugated-DM1, mertansine (DM1)], the tolerated dose [1] is reported as “up to 2.5 mg/kg”.
In the case of hemoglobin, the IC50 (cancer cell lines) is reported as greater than 10 µM and the “location of fluorescence signal (biodistribution)” value [2] is reported as “mainly in liver and kidney”.
